Measurements reported in patent publication US11130762B2, “Azaaryl derivative, preparation method therefor, and application thereof for use in pharmacy” (Abbisko Therapeutics Co., Ltd., priority 2017, dated 2021).
Where two headings read alike, the source gives them in different places.

What was measured:
[1] = system: MV-4-11 human acute monocytic leukemia cells; assay: Cell proliferation (Cell Titer Glo), MV-4-11 cells (FLT3); format: cell-based; details: MV4-11, 72 h, 3 days, CTG, * = average of multiple tests, read-out: Cytological experiment FLT3 IC50
Procedure: D. CSF-1R-Related Cell Proliferation Experiment
Functional effects of compounds on the proliferation of several cell lines were evaluated by Cell Titer Glo (CTG) studies in the present invention, and effects of the compounds on the proliferation of different cells were evaluated to determine the selectivity degree of the compounds. In the experiment, M-07e human cytomegalic leukemia cells (cat. No. CBP60791) from Nanjing Kebai Biotechnology Co., Ltd. were cultured in an incubator under conditions of RPMI1640 (Gibco, cat. No. 11875-119), 20% fetal bovine serum (Gibco, 10099-141), human 10 ng/mL GM-CSF granulocyte macrophage colony-stimulating factors (R&D, cat. No. 215-GM-010), 37° C., and 5% CO2; and Kasumi-1 human acute myeloblastic leukemia cells (cat. No. CBP60524) were cultured in an incubator under conditions of RPMI1640 (Gibco, cat. No. 11875-119), 20% fetal bovine serum (Gibco, 10099-141), 37° C., and 5% CO2: NCI-H1703 human non-small cell lung squamous carcinoma cells (cat. No. CBP60115) were cultured in an incubator under conditions of RPMI1640 (Gibco, cat. No. 11875-119), 10% fetal bovine serum (Gibco, 10099-141), 37° C., and 5% CO2; MV-4-11 human acute monocytic leukemia cells (cat. No. CBP60522) were cultured in an incubator under conditions of IMDM (Invitrogen, cat. No. 12440053), 20% fetal bovine serum (Gibco, 10099-141), 37° C., and 5% CO2. Since ATP is an index for viable cell metabolism, CTG (Promega, #G7573) reagent is a homogeneous detection method for detecting the number of viable cells in the culture by quantifying ATP. Therefore, compound-mediated inhibition for cell proliferation/survival was evaluated by quantifying ATP content in cells, and the specific experimental process was as follows.
III) MV-4-11 Human Acute Monocytic Leukemia Cell
1. The cells were inoculated into a tissue-culture-medium-treated 96-well plate (Costar #3904) with 5000 cells/well/90 μL fresh culture medium, and cultured for 24 hrs:
2. the next day, 10 μL of culture medium containing testing compound with 10-fold of final concentration was added to each well;
3. the dosage effect was evaluated by testing 3-fold serial dilutions of the compound, which started from 18 μM;
4. after the cells were incubated for 3 days at 37° C. and 5% CO2, the inhibition on cell survival was quantified after 50 μL of CTG was added and the luminescence assay was performed;
5. the compound concentration leading to half maximal inhibitory (IC50) and the compound concentration leading to absolute half maximal inhibitory (Absolute IC50) were measured by a plate reader (M1000, Tecan) and a four-parameter curve fit in Graphpad Prism 7.

[2] = system: M-NFS-60 mouse myeloid leukemia lymphocytes; assay: CSF-1R-related cell proliferation experiment (Cell Titer Glo), M-NFS-60 cells with M-CSF; format: cell-based; details: Lymphocyte, 72 h, 3 days, CTG, * = average of multiple tests
Procedure: C. CSF-1R-Related Cell Proliferation Experiment
Functional effects of compounds on cell proliferation were evaluated by using Cell Titer Glo (CTG) study in the present invention. M-NFS-60 mouse myeloid leukemia lymphocytes (cat. No. CCBJ078) from National Institutes For Food and Drug Control were cultured in the incubator under conditions of RPMI 1640 (Gibco, cat. No. 11875-119), 10% fetal bovine serum (Gibco, 10099-141), human 10 ng/mL M-CSF macrophage colony-stimulating factor (R&D, cat. No. MVN0915101), 37° C., and 5% CO2. Since ATP is an index for viable cell metabolism, CTG (Promega, #G7573) reagent is a homogeneous detection method for detecting the number of viable cells in the culture by quantifying ATP. Therefore, compound-mediated inhibition for cell proliferation/survival was evaluated by quantifying ATP content in cells, and the specific experimental process was as follows:
1. The cells were plated into a tissue-culture-medium-treated 96-well plate (Costar #3904) with 5,000 cells/well/80 μL fresh culture medium;
2. 24 hours later, 10 μL culture medium containing testing compound with 10-fold of final concentration was added to each well;
3. 10 μL of culture medium containing M-CSF with 10-fold of the final concentration was then added to each well;
4. dosage effect was evaluated by testing the 3-fold serial dilutions of the compound;
5. after the cells were incubated for 3 days at 37° C. and 5% CO2, the inhibition on cell survival was quantified after 50 μL of CTG was added and the luminescence assay was performed;
6. the compound concentration leading to half maximal inhibitory (IC50) and the compound concentration leading to absolute half maximal inhibitory (Absolute IC50) were measured by a plate reader (M1000, Tecan) and a four-parameter curve fit in Graphpad Prism 7.

[3] = biological target: CSF-1R (Homo sapiens, UniProt P07333); assay: CSF-1R in vitro biochemical kinase study (ADP-Glo assay); details: 500 μM ATP, * = average of multiple tests, read-out: Enzymatic experiment CSF1R IC50
CSF-1R, sequence (P07333 20-972): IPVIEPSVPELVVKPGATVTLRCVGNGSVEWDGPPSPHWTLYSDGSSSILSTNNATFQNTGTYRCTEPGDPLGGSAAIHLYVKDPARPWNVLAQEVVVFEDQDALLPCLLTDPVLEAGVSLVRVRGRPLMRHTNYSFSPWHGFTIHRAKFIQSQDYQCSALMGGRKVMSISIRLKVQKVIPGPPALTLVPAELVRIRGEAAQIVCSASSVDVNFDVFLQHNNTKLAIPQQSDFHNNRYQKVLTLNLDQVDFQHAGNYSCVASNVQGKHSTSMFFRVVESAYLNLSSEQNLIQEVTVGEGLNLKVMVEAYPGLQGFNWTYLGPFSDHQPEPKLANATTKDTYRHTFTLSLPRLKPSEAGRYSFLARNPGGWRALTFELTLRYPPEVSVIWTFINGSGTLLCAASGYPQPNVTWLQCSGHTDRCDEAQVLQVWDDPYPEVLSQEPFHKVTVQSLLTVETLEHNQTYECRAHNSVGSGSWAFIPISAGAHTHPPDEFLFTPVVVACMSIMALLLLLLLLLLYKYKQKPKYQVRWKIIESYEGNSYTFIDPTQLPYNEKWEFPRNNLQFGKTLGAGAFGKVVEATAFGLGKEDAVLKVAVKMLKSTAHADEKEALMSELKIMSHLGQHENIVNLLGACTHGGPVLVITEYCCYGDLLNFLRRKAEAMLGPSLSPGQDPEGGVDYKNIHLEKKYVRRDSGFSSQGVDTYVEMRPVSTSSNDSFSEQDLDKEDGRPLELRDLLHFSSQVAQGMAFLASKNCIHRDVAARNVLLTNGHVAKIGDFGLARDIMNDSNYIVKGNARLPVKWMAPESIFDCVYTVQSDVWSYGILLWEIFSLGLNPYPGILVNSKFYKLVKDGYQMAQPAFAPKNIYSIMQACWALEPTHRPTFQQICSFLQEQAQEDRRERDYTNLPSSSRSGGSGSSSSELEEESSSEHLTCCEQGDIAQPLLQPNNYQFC
Procedure: A. CSF-1R In Vitro Biochemical Kinase Study
In the present invention, the inhibitory activity of compounds against the CSF-1R activity was determined by using CSF-1R ADP-Glo assay. The compound-mediated inhibition effect was achieved by inhibiting the production of ADP from consumption of ATP, and the activities of compounds were evaluated by using the ADP-Glo kit (Promega, cat. No. V9101). The specific experimental process was as follows:
1. The kinase reaction performed in the present invention was carried out in a 384-well plate (Perkinelmer, cat. No. 6007290), 3.95 nM of CSF-1R, 500 μM of ATP, and 0.2 mg/mL of polypeptide (Poly (Glu4, Try1), Sigma, cat. No. P0275) were respectively weighed and added to each well:
2. following reagents were then added to each well to reach the final reaction system: 40 mM Tris, pH 7.5, 20 mM MgCl2, 0.01% Triton X-100, 0.1 mg/mL BSA, 2.5 mM DTT, and 0.1% DMSO;
3. the reaction was conducted at 30° C. for 60 min;
4. then an equal volume of stop solution (ADP-Glo) was added to the kinase reaction system;
5. the mixed solution was incubated at 25° C. for 60 min, and the kinase reaction was then terminated;
6. a two-fold volume of detection reagent was then added to each well;
7. the mixed solution was incubated at 25° C. for 30 min;
8. the compound IC50 value was measured by using a plate reader (Tecan, M1000) and a four-parameter curve was generated in Graphpad Prism.

[4] = read-out: Cytological experiment CSF1R IC50
[5] = absolute half maximal inhibition, read-out: Cytological experiment CSF-1R Absolute IC50

IC50 [1] [nM]	IC50 [2, 4] [nM]	IC50 [2, 5] [nM]	IC50 [3] [nM]	SMILES
> 6000	101	95.6	73.7	Cc1nc(-c2cnc3n(c2=O)CCCN3C)ccc1Oc1ccnc(-c2cnn(C)c2)c1 [Example 1, 9-methyl-3-(6-methyl-5-((2-(1-methyl-1H-pyrazol-4-yl)pyridin-4-yl)oxy)pyridin-2-yl)-6,7,8,9-tetrahydro-4H-pyrimido[1,2-a]pyrimidin-4-one]
1810	38	20.2	90.7	CCN1CCCn2c1ncc(-c1ccc(Oc3ccnc(-c4cnn(C)c4)c3)c(C)n1)c2=O [Example 4]
